Where two headings read alike, the source gives them in different places.

The record followed here is patent US10253010B2, “C-glycoside derivative” (SIHUAN PHARMACEUTICAL HOLDINGS GROUP LTD., priority 2011, dated 2019).

Series [1] in a line: Rat in vivo pharmacokinetic assay (IV and PO). The following applies: plasma, male SD rat; for half-life: read-out: T1/2 (half-life) (converted); for bioavailability: PO 5 mg/kg versus IV 2 mg/kg, read-out: F % (absolute bioavailability). Further details: species or system SD rats. As to the method:
Rat In Vivo Pharmacokinetic Assay for the Present Compounds
Assay animals: 6-8 weeks aged male SD rats (purchased from Vital River Laboratories), 6 rats per compound, weighing 220-250 g.
Dissolved in an appropriate solvent (5% DMSO+95% (6% HP-β-CD solution)).
Administration: See Table 2
Blood collection: each of about 100 μL whole blood were collected at 0 h, 0.083 h, 0.25 h, 0.5 h, 1 h, 2 h, 4 h, 6 h, 8 h and 24 h. The collected blood samples were centrifuged at 4° C. at 8000 rpm in a low temperature high-speed centrifuge (5415R, Eppendorf) for 6 mins to separate the blood plasm. The separated plasm was preserved at −80° C. in a refrigerator.
20 μL of the plasm was carefully taken out, to which was added 200 μL acetonitrile solution (containing internal standard KBP-1204 50 ng/ml). The plasm was subjected to a vortex at 1500 rpm for 3 mins, and then centrifuged at 12000 rpm for 5 mins. The supernatant was taken and was analyzed with LC-MS/MS (API4000, Applied Biosystems). Equation Absolute bioavailability F %=[AUC]INF(PO)*Dose(IV)/[AUC]INF(IV)*Dose(PO)

The nature of series [2]: Urine glucose assay in normal rats. To be noted: normal male SD rats, 10 mg/Kg oral, glucose 5 g/kg, 24 h urine; for Urine glucose mass: standardized to 200 g body weight. The format is in vivo, Sprague-Dawley rats. Here is the method:
SPF-grade male Sprague-Dawley rats, 6-weeks aged, were used in this urine glucose assay. After the rats were fasted for 15 h, the rats were divided randomly into a blank control group, a model group, a positive drug group and a test drug group according to their body weights. The rats were put into metabolic cages where water was available but food was unavailable. The urines in this 24 hours were collected. Then, the drugs were orally administered (10 mg/Kg) and then the glucose was fed (5 g/kg) to the animals. Then the animals were put into metabolic cages. The rats were supplemented with food one hour after the drug administration and the glucose feeding, and then could freely contact the diets. The urines in this 24 hours were collected and recorded. The collected urines were centrifuged at 3000 rpm for 15 mins. The residues were removed. The supernatants were taken and the urine glucose contents therein were measured.
The urine glucose contents were standardized based on the body weight of 200 g. The data were expressed in average±standard deviation. The resulting values were analyzed with one-way ANOVA, and the comparisons between groups were conducted with one-way ANOVA and Dunnett test, where p<0.05 was considered to have a statistical significance.

For series [3], the target named is T1, human SGLT1 (Homo sapiens, UniProt P13866).
T1 sequence (P13866 1-664): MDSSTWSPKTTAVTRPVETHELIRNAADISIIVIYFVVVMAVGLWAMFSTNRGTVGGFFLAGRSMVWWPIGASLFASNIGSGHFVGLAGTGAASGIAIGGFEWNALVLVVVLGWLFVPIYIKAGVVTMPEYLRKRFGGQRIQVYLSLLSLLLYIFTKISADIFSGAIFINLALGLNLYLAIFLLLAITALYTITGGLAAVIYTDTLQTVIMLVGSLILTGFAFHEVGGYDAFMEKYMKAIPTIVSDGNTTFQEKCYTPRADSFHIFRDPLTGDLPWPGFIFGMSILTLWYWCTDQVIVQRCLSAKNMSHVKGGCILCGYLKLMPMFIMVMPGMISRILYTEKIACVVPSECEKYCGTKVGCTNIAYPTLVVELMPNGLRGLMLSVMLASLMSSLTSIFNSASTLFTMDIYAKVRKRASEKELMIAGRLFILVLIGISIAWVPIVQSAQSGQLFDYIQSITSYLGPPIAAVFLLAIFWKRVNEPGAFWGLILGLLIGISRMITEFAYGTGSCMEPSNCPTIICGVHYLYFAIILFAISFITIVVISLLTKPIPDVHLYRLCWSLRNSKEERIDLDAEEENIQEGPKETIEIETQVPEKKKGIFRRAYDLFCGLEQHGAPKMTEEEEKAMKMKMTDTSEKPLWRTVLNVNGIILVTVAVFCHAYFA
The series is described as follows: Inhibition of sodium dependent [14C]-AMG uptake in CHO cells stably expressing human SGLT1. The following applies: CHO cells expressing human SGLT1, [14C]-AMG uptake. The format is cell-based. As to the method: (§1) In the in vitro evaluation method according to the present invention, the human SGLT2 and SGLT1 sequences were transfected to Chinese hamster ovary cells to express stably. By measuring inhibition of the sodium dependent adsorption of [^14C]-labeled […]-D-glucopyranoside (AMG) into the cells, the half-inhibition concentration IC50 was determined.
(§2) Buffer A (KRH-Na+): 120 mM NaCl, 4.7 mM KCl, 1.2 mM MgCl2, 2.2 mM CaCl2, 10 mM HEPES (PH 7.4 with 1 mM Tris).
(§3) Buffer A− (KRH-NMG): 120 mM NMG, 4.7 mM KCl, 1.2 mM MgCl2, 2.2 mM CaCl2, 10 mM HEPES (PH 7.4 with 1 mM Tris).
(§4) Buffer D: 120 mM NaCl, 4.7 mM KCl, 1.2 mM MgCl2, 2.2 mM CaCl2, 10 mM HEPES, 0.5 mM phlorizin (PH 7.4 with 1 mM Tris).
(§5) Assay method: Human SGLT2 and SGLT1 sequences were stably expressed in the CHO cells. The cell culture was conducted in a 96-well plate for 12 hr. The plate was washed with KRH-Na+ (Buffer A) or KRH-NMG (Buffer A−) buffering solution for three times, 200 μL/well. Then the plate was washed with a buffering solution containing Buffer A or Buffer A− plus [^14C]-AMG (10 μCi/mL), 100 μL/well. The cell culture was conducted at 37° C. for 1 h. Then, 100 μL of ice pre-cooled buffering solution (Buffer D) was added to terminate the assay. The plate was washed for 5 times. Then 100 mM NaOH solution was added, 20 μL/well, and the centrifugation at 600 rpm was conducted for 5 mins. Then Microscint 40 solution was added, 80 μl/well, and the centrifugation at 600 rpm was conducted for 5 mins. Finally, the radioactivity of [^14C]-AMG was detected with MicroBeta Trilux (purchased from PerkinElmer Co. Ltd.) according to the scintillation counting method, and the half-inhibition concentration IC50 was calculated.
(§6) The above assays were entrusted to Shanghai ChemPartner Co. Ltd.

For series [4], the target named is T2, human SGLT2 (Homo sapiens, UniProt P31639).
T2 sequence (P31639 1-672): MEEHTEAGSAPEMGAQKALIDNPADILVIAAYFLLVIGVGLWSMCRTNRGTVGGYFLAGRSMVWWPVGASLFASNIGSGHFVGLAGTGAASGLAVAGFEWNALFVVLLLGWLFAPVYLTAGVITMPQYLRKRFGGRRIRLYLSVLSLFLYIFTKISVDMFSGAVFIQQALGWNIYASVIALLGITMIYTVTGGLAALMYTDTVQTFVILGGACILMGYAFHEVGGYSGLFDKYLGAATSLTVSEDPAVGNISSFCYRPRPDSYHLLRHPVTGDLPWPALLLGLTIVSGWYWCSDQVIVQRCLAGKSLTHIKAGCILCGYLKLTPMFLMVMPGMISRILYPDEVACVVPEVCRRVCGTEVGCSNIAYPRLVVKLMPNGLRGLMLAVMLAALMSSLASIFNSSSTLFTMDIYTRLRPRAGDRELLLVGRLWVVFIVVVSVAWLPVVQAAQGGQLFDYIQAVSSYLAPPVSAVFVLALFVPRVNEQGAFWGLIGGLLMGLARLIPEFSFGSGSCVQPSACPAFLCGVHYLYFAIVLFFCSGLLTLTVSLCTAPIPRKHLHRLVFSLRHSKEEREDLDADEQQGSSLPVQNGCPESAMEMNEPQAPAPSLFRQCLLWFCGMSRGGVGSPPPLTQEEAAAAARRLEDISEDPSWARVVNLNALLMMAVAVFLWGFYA
Kind of series: Inhibition of sodium dependent [14C]-AMG uptake in CHO cells stably expressing human SGLT2. The following applies: for IC50: CHO cells expressing human SGLT2, [14C]-AMG uptake; for Selectivity: SGLT1 IC50 versus SGLT2 IC50. The format is cell-based. Here is the method: as §1, §2, §3, §4, §5, §6

What is called AUC(0-t) is the area under the concentration-time curve up to a stated or last time point. Read a low AUC(0-t) as low exposure. In general, AUC(0-inf) refers to total exposure, with the tail of the curve extrapolated. For orientation: bioavailability means the share of a dose that reaches the circulation, judged against a reference dose that is usually intravenous. For the compound `OC[C@H]1O[C@@H](c2ccc(Cl)c(Cc3ccc(O[C@H]4CCOC4)cc3)c2)[C@H](O)[C@@H](O)[C@@H]1O` [BI-10773, reference compound], in series [1] (IV, 2 mg/kg), the area under the curve AUC(0-t) turned out to be 1090 ± 138 ng·h/mL, the AUC(0-inf) stood at 1100 ± 142 ng·h/mL and the half-life was 0.7 ± 0.07 h. Also, the bioavailability in series [1] was 16.5%. Moreover, in series [1] (PO, 5 mg/kg), the AUC(0-t) is 426 ± 116 ng·h/mL, the AUC(0-inf) turned out to be 457 ± 114 ng·h/mL and the half-life was 1.33 ± 0.33 h. In series [2], this compound returned a Urine volume of 16.63 mL and a Urine glucose mass of 866.67 mg/200 g.
The IC50 is the concentration at which inhibition is half-maximal. Low values mean higher potency, high ones lower potency. Consider `OC[C@H]1OC(c2ccc(Cl)c(Cc3ccc(OC4CC5CC5C4)cc3)c2)[C@H](O)[C@@H](O)[C@@H]1O` (some centres unmarked) [Compound 4], for which, in series [1] (IV, 2 mg/kg), the area under the curve AUC(0-t) is 12400 ± 732 ng·h/mL, the AUC(0-inf) is 13500 ± 451 ng·h/mL and the half-life was 6.81 ± 0.74 h. In series [1], the bioavailability turned out to be 87.2%. In series [1] (PO, 5 mg/kg), the AUC(0-t) is 26300 ± 1790 ng·h/mL, the total exposure AUC(0-inf) came to 29500 ± 2720 ng·h/mL and the half-life is 7.33 ± 0.96 h. Moreover, in series [2], the Urine volume amounted to 18.50 mL and the Urine glucose mass was 1197.79 mg/200 g. The compound also returned an IC50 in series [3] of 2.4 µM.
Turning to `OC[C@H]1OC(c2ccc(Cl)c(Cc3ccc(OC4C5COCC54)cc3)c2)[C@H](O)[C@@H](O)[C@@H]1O` (some centres unmarked) [Compound 10], in series [1] (IV, 2 mg/kg), the AUC(0-t) was determined as 972 ± 164 ng·h/mL, the total exposure AUC(0-inf) came to 984 ± 167 ng·h/mL and the half-life is 0.88 ± 0.21 h. Besides, the bioavailability in series [1] was determined as 18.9 ± 6.52%. Further, in series [1] (PO, 5 mg/kg), the AUC(0-t) was 430 ± 166 ng·h/mL, the AUC(0-inf) was found to be 464 ± 160 ng·h/mL and the half-life is 1.77 ± 0.47 h. Further, in series [2], the Urine volume turned out to be 16.25 mL and the Urine glucose mass worked out at 972.99 mg/200 g. This compound came in with an IC50 in series [3] of 1.89 µM. In series [4], this compound yielded an IC50 of 0.00316 µM and a Selectivity of 596.
Turning to `OC[C@H]1OC(c2ccc(Cl)c(Cc3ccc(C4CCC5(CCC5)CC4)cc3)c2)[C@H](O)[C@@H](O)[C@@H]1O` (some centres unmarked) [Compound 13], in series [1] (IV, 2 mg/kg), the exposure AUC(0-t) was 6950 ± 100 ng·h/mL, the AUC(0-inf) was determined as 7010 ± 148 ng·h/mL and the half-life was 3.75 ± 0.6 h. For the same compound, the bioavailability in series [1] came to 35.9 ± 7.78%. Besides, in series [1] (PO, 5 mg/kg), the AUC(0-t) stood at 6220 ± 1350 ng·h/mL, the AUC(0-inf) came to 6290 ± 1360 ng·h/mL and the half-life is 3.36 ± 0.46 h. This compound also yielded an IC50 in series [3] of 29.1 µM. Further, in series [4], the IC50 was found to be 0.00399 µM and the Selectivity turned out to be 73.
